This is an account of results in patent publication US20260061066A1, “ANTI-GRP78 ANTIBODY, IMMUNOCONJUGATE AND USES THEREOF” (UCT BIOSCIENCE CO., LTD., priority 2024, published 2026).

One assay deals with H460. The experiment in a line: In-vitro cytotoxicity, CCK-8 assay. The class given is cell-based. To be noted: H460 (lung cancer); cell viability after 48 hours.
A further assay has as its system KLM-1. The experiment in a line: In-vitro cytotoxicity, CCK-8 assay. The format is cell-based. To be noted: KLM-1 (pancreatic cancer), cell viability after 48 hours. As to the method: (§1) In-Vitro cytotoxicity assays of GID10-ADC, DM1 and GID10 on HL-60, HCC1806, MDA-MB-231, Raji, RPMI8226, NCI-H929, MM.1S, G-361, THP-1, PL45, AsPC-1, KLM-1, OV90, 4Tl and EL-4 cells. Cell viability was measured after 48 hours using Cell Counting Kit-8 (CCK-8) assay (DOJINDO™, Cat. No. CK04-13), as shown in Table 3. For example, on Day 0, THP-1 cells were seeded at […] cells per well in a 96-well plate and treated with diluted test compounds. The cells were incubated for 48 hours at 37° C. with 5% CO2. On Day 2, 20 μl of CCK-8 was added to each well, followed by incubation for 1-4 hours. Absorbance at 450 nm was then measured to assess cell viability and the impact of the test compounds. […] Cell viability was measured after 48 hours using the Cell Counting Kit-8 (CCK-8) assay (DOJINDO™, Cat. No. CK04-13). IC50 (M) was calculated to determine the efficacy of the antibody, DM1, and ADC on the various cancer cell lines.
(§2) In-Vitro cytotoxicity assays of Dxd-conjugated ADC and free payload Dxd on THP-1, NCI-N87, Capan-1, and KLM-1 cells. Cell viability was measured after 48 hours using Cell Counting Kit-8 (CCK-8) assay (DOJINDO™, Cat. No. CK04-13), as shown in Table 4. […] Absorbance at 450 nm was then measured to assess cell viability and the impact of the test compounds. […] Cell viability was measured after 48 hours using the Cell Counting Kit-8 (CCK-8) assay (DOJINDO™, Cat. No. CK04-13). […]
(In general: Tetrazolium assays rely on reduction of a dye to a coloured formazan, in cell work by metabolically active cells.)

Another assay relates to THP-1 cells. The experiment in a line: In-vitro cytotoxicity, CCK-8 assay. The format is cell-based, human. The note with it: THP-1 (AML), cell viability after 48 hours. As to the method:
as §1, §2

Another assay has as its system NCI-H929. Nature of the assay: In-vitro cytotoxicity, CCK-8 assay. The class given is cell-based. To be noted: NCI-H929 (MM); cell viability after 48 hours. As to the method:
(§3) In-Vitro cytotoxicity assays of GID10-ADC, DM1 and GID10 on HL-60, HCC1806, MDA-MB-231, Raji, RPMI8226, NCI-H929, MM.1S, G-361, THP-1, PL45, AsPC-1, KLM-1, OV90, 4Tl and EL-4 cells. Cell viability was measured after 48 hours using Cell Counting Kit-8 (CCK-8) assay (DOJINDO™, Cat. No. CK04-13), as shown in Table 3. For example, on Day 0, THP-1 cells were seeded at […] cells per well in a 96-well plate and treated with diluted test compounds. The cells were incubated for 48 hours at 37° C. with 5% CO2. On Day 2, 20 μl of CCK-8 was added to each well, followed by incubation for 1-4 hours. Absorbance at 450 nm was then measured to assess cell viability and the impact of the test compounds. For suspension cells, such as HL-60, Raji, RPMI8226, NCI-H929, MM. 1S, and THP-1, 5×10^4 cells per well were inoculated into a 96-well plate. For adherent cells, such as HCC1806, MDA-MB-231, G361, PL45, AsPC-1, KLM-1, OV90, and EL-4, 1.5-5×10^3 cells per well were inoculated based on their doubling time. Adherent cells with a doubling time of less than 24 hours were seeded at 1.5×10^3 cells per well (EL-4), while those with a doubling time of more than 24 hours were seeded at 5×10^3 cells per well. […] DM1 was used as the positive control agent. The cell lines tested included HL-60, HCC1806, MDA-MB-231, Raji, RPMI8226, NCI-H929, MM.1S, G-361, THP-1, PL45, AsPC-1, KLM-1, OV90, 4T1, and EL-4 cells. Cell viability was measured after 48 hours using the Cell Counting Kit-8 (CCK-8) assay (DOJINDO™, Cat. No. CK04-13). IC50 (M) was calculated to determine the efficacy of the antibody, DM1, and ADC on the various cancer cell lines.

Another assay relates to EL4. The experiment in a line: In-vitro cytotoxicity, CCK-8 assay. The format is cell-based. To be noted: EL4 (murine lymphoma); cell viability after 48 hours. As to the method:
as §3

Another assay deals with OV90. The experiment in a line: In-vitro cytotoxicity, CCK-8 assay. To be noted: OV90 (ovarian cancer); cell viability after 48 hours. The format is cell-based. As to the method:
as §3

The next assay relates to ASPC1. Nature of the assay: In-vitro cytotoxicity, CCK-8 assay. The format is cell-based. The note with it: ASPC1 (pancreatic cancer); cell viability after 48 hours. As to the method: as §3
The test system of the next assay is RPMI8226. Nature of the assay: In-vitro cytotoxicity, CCK-8 assay. The class given is cell-based. To be noted: RPMI8226 (MM); cell viability after 48 hours. As to the method: as §3
For the next assay, the system named is MDA-MB-231. Nature of the assay: In-vitro cytotoxicity, CCK-8 assay. The format is cell-based. The note with it: MDA-MB-231 (TNBC); cell viability after 48 hours. As to the method:
as §3

The subject of a further assay is MM.1S. The experiment in a line: In-vitro cytotoxicity, CCK-8 assay. The format is cell-based. The note with it: MM.1S (MM); cell viability after 48 hours. As to the method: as §3
The test system of a further assay is 4T1. Nature of the assay: In-vitro cytotoxicity, CCK-8 assay. To be noted: 4T1 (murine breast cancer, stage IV); cell viability after 48 hours. The format is cell-based. As to the method:
as §3

Another assay deals with Raji. The experiment in a line: In-vitro cytotoxicity, CCK-8 assay. To be noted: Raji (DLBCL); cell viability after 48 hours. The format is cell-based. As to the method:
as §3

The next assay deals with G361. Nature of the assay: In-vitro cytotoxicity, CCK-8 assay. The note with it: G361 (melanoma); cell viability after 48 hours. The class given is cell-based. As to the method: as §3
For a further assay, the system named is HCC1806. The experiment in a line: In-vitro cytotoxicity, CCK-8 assay. The format is cell-based. To be noted: HCC1806 (TNBC); cell viability after 48 hours. As to the method:
as §3

The subject of another assay is NCI-N87. Nature of the assay: In-vitro cytotoxicity, CCK-8 assay. The class given is cell-based. To be noted: NCI-N87 (gastric cancer); cell viability after 48 hours. As to the method: (§4) In-Vitro cytotoxicity assays of Dxd-conjugated ADC and free payload Dxd on THP-1, NCI-N87, Capan-1, and KLM-1 cells. Cell viability was measured after 48 hours using Cell Counting Kit-8 (CCK-8) assay (DOJINDO™, Cat. No. CK04-13), as shown in Table 4. For example, on Day 0, THP-1 cells were seeded at 5×10^4 cells per well in a 96-well plate and treated with diluted test compounds. The cells were incubated for 48 hours at 37° C. with 5% CO2. On Day 2, 15 μl of CCK-8 was added to each well, followed by incubation for 1-4 hours. Absorbance at 450 nm was then measured to assess cell viability and the impact of the test compounds. For suspension cells, such as THP-1, 2-5×10^4 cells per well were inoculated into a 96-well plate. For adherent cells, such as NCI-N87, Capan-1, and KLM-1, 1.5-5×10^3 cells per well were inoculated based on their doubling time. As shown in FIGS. 6A-6C, THP-1, and KLM-1 cells are not killed in the presence of G1D10 antibody alone. […] Linker-Dxd was used as the positive control agent. The cell lines tested included THP-1, NCI-N87, Capan-1, and KLM-1 cells. Cell viability was measured after 48 hours using the Cell Counting Kit-8 (CCK-8) assay (DOJINDO™, Cat. No. CK04-13). IC50 (M) was calculated to determine the efficacy of the Linker-Dxd and the Dxd-conjugated ADC on the various cancer cell lines.

The subject of the next assay is Capan-1. Nature of the assay: In-vitro cytotoxicity, CCK-8 assay. The class given is cell-based. The note with it: Capan-1 (pancreatic cancer); cell viability after 48 hours. As to the method: as §4
Assay [1] addresses cell surface glucose-related protein 78 (GRP78) on cancer cell lines (human) (UniProt P11021). Nature of the assay: flow cytometry, OVCAR3 cells; A488-anti-mouse-IgG alone 1.8%. In general terms: Flow cytometry measures light scatter and fluorescence of single cells or particles in a stream.

cell surface glucose-related protein 78 (GRP78) on cancer cell lines (human), sequence (P11021 19-654): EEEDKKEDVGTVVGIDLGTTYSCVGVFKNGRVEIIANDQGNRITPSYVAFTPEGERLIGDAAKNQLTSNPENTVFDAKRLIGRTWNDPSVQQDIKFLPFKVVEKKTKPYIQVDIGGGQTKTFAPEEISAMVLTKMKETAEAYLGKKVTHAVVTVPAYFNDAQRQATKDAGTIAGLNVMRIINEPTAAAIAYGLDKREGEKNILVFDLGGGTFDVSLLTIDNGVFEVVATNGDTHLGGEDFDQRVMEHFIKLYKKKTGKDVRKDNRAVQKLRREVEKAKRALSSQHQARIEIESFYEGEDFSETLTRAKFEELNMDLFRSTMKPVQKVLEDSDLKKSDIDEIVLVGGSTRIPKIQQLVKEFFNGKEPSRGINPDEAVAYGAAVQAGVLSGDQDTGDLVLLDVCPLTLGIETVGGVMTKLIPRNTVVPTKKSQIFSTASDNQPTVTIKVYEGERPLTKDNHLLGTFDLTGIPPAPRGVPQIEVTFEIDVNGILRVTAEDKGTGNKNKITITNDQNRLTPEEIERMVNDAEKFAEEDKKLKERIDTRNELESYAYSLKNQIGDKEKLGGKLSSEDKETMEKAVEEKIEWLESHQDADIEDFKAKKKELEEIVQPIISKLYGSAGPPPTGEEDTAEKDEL

For orientation: IC50 means the concentration that inhibits the measured activity by half. `COc1cc2cc(c1Cl)N(C)C(=O)C[C@H](OC(=O)[C@H](C)N(C)C(=O)CCS)[C@]1(C)O[C@H]1[C@H](C)[C@@H]1C[C@@](O)(NC(=O)O1)[C@H](OC)/C=C/C=C(\C)C2` [DM1, emtansine (DM1)]: the IC50 in the assay on H460 was 1.68 nM; with KLM-1 (Table 3), 1.61 nM; in the assay on THP-1 cells (Table 3) it was 4.63 nM; with NCI-H929, 1.13 nM; with EL4 it was 1.52 nM; in the assay with OV90, 55.2 nM. Besides, the IC50 is 60.2 nM with ASPC1; 1.79 nM in the assay with RPMI8226; 28.5 nM in the assay on MDA-MB-231; 4.86 nM in the assay on MM.1S; 83 nM in the assay with 4T1; 4.35 nM with Raji. Moreover, the figures for the IC50 in the assay on G361 and in the assay with HCC1806 were 3.11 nM and 27.2 nM, respectively.
“N-hydrozysuccinimide (NHS)-VC-para-aminobenzyl carbamate (PABC)-Dxd [Linker-Dxd]”: the IC50 in the assay with KLM-1 (Table 4) came to 184 nM; with NCI-N87, 161 nM; with Capan-1 it was 296 nM; in the assay with THP-1 cells (Table 4) it was 61.2 nM.
Turning to “anti-GRP78 antibody C38 (eBioscience, Cat. No. 14-9768-82)”, the % (flow cytometry cell surface staining) in assay [1] is 2.3%.
